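Values below derive from 48-hour exposures of cells grown in 96-well plates, with endpoints linearly interpolated between the two concentrations bracketing the appropriate inhibition level. At the GI50, growth is halved.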 The source made the active and inactive calls. Rule as the data show it: active = GI50 up to about 1.1 µM and inactive = higher.
Tests used:
Assay in all cases: NCI tumour cell line growth inhibition, 48 h
OVCAR-3 = system: OVCAR-3
CCRF-CEM = system: CCRF-CEM
KM12 = system: KM12
SF-539 = system: SF-539
SR = system: SR
SN12C = system: SN12C
SW-620 = system: SW-620
COLO 205 = system: COLO 205
NCI-H226 = system: NCI-H226
HCT-116 = system: HCT-116
SK-MEL-2 = system: SK-MEL-2
OVCAR-4 = system: OVCAR-4
HOP-92 = system: HOP-92
UACC-257 = system: UACC-257
MCF7 = system: MCF7
NCI/ADR-RES = system: NCI/ADR-RES
DU-145 = system: DU-145
K562 = system: K562
RPMI-8226 = system: RPMI-8226
OVCAR-5 = system: OVCAR-5

Structure (SMILES) | GI50 (OVCAR-3) | GI50 (CCRF-CEM) | GI50 (KM12) | GI50 (SF-539) | GI50 (SR) | GI50 (SN12C) | GI50 (SW-620) | GI50 (COLO 205) | GI50 (NCI-H226) | GI50 (HCT-116) | GI50 (SK-MEL-2) | GI50 (OVCAR-4) | GI50 (HOP-92) | GI50 (UACC-257) | GI50 (MCF7) | GI50 (NCI/ADR-RES) | GI50 (DU-145) | GI50 (K562) | GI50 (RPMI-8226) | GI50 (OVCAR-5)
Cc1ccc(NC(=O)CSc2nc(O)nc3[nH]cnc23)cc1 | > 100 µM (inactive) | 27.7 µM (inactive) | > 100 µM (inactive) | 24 µM (inactive) | 35.6 µM (inactive) | 30.5 µM (inactive) | 66.2 µM (inactive) | > 100 µM (inactive) | 33.8 µM (inactive) | > 100 µM (inactive) | > 100 µM (inactive) | > 100 µM (inactive) | > 100 µM (inactive) | > 100 µM (inactive) | 45.2 µM (inactive) | 80.2 µM (inactive) | > 100 µM (inactive) | > 100 µM (inactive) | 50.5 µM (inactive) | 49.7 µM (inactive)
CC(C)CCCC(C)[C@H]1CCC2[C@@H]3CCC4Cc5nc6c(nc5C[C@]4(C)C3CC[C@@]21C)CC1CC[C@@H]2C(CC[C@@]3(C)C2CC[C@@H]3O)[C@@]1(C)C6 (stereo not given in full) | > 100 µM (inactive) | > 100 µM (inactive) | > 100 µM (inactive) | > 100 µM (inactive) | > 100 µM (inactive) | > 100 µM (inactive) | > 100 µM (inactive) | > 100 µM (inactive) | > 100 µM (inactive) | > 100 µM (inactive) | > 100 µM (inactive) | > 100 µM (inactive) | > 100 µM (inactive) | > 100 µM (inactive) | > 100 µM (inactive) | > 100 µM (inactive) | > 100 µM (inactive) | > 100 µM (inactive) | > 100 µM (inactive) | > 100 µM (inactive)
Cc1nc(-n2nc(-c3ccccc3)cc2-c2ccccc2)sc1C(/C=C\c1ccc([N+](=O)[O-])cc1)=N/NC(=S)NN | > 46.8 µM (inactive) | > 50.8 µM (inactive) | 43.7 µM (inactive) | 24.2 µM (inactive) | 0.0948 µM (active) | 21.7 µM (inactive) | > 74 µM (inactive) | > 31.6 µM (inactive) | > 46.8 µM (inactive) | 19.5 µM (inactive) | 44.1 µM (inactive) | 26.2 µM (inactive) | > 100 µM (inactive) | > 42.1 µM (inactive) | 15.4 µM (inactive) | 26.9 µM (inactive) | 31 µM (inactive) | > 56.6 µM (inactive) | > 48.8 µM (inactive) | 38.7 µM (inactive)
O=C1c2ccccc2CC12Cc1ccccc1C2 | 44 µM (inactive) | 48.3 µM (inactive) | 44.9 µM (inactive) | > 100 µM (inactive) | 6.12 µM (inactive) | 69.3 µM (inactive) | > 100 µM (inactive) | 44.7 µM (inactive) | > 100 µM (inactive) | 44.1 µM (inactive) | 45.3 µM (inactive) | 16.7 µM (inactive) | 31.4 µM (inactive) | 18.9 µM (inactive) | 53.5 µM (inactive) | 25.2 µM (inactive) | 86.3 µM (inactive) | 34.8 µM (inactive) | 31.7 µM (inactive) | > 100 µM (inactive)
Cc1ccc([N+](=O)[O-])cc1S(=O)(=O)Nc1ccc(C2=NN(c3ccc([N+](=O)[O-])cc3[N+](=O)[O-])C(c3ccccc3O)C2)cc1 (stereo not given) | 24.9 µM (inactive) | 25 µM (inactive) | 37 µM (inactive) | 55.5 µM (inactive) | 27.2 µM (inactive) | 18 µM (inactive) | 63.7 µM (inactive) | 32.4 µM (inactive) | 36.6 µM (inactive) | 29 µM (inactive) | 20.7 µM (inactive) | 31 µM (inactive) | 26.6 µM (inactive) | 25.2 µM (inactive) | 27.9 µM (inactive) | 27.9 µM (inactive) | 39.1 µM (inactive) | 21.8 µM (inactive) | 49.1 µM (inactive) | > 100 µM (inactive)
CN/N=C(\C)C(CN(C)C)C(c1ccccc1)c1c(O)c2ccccc2oc1=O (stereo not given) | 49.5 µM (inactive) | 73.6 µM (inactive) | > 100 µM (inactive) | > 100 µM (inactive) | 67.9 µM (inactive) | > 100 µM (inactive) | > 100 µM (inactive) | 40.4 µM (inactive) | > 100 µM (inactive) | > 100 µM (inactive) | > 100 µM (inactive) | 99.1 µM (inactive) | 0.0574 µM (active) | > 100 µM (inactive) | > 100 µM (inactive) | > 100 µM (inactive) | > 100 µM (inactive) | > 100 µM (inactive) | 42 µM (inactive) | > 100 µM (inactive)
N#CC(NCCc1ccccc1)c1ccccc1 (stereo not given) | > 100 µM (inactive) | > 100 µM (inactive) | > 100 µM (inactive) | > 100 µM (inactive) | > 100 µM (inactive) | > 100 µM (inactive) | > 100 µM (inactive) | > 100 µM (inactive) | > 100 µM (inactive) | > 100 µM (inactive) | > 100 µM (inactive) | > 100 µM (inactive) | > 100 µM (inactive) | > 100 µM (inactive) | > 100 µM (inactive) | > 100 µM (inactive) | > 100 µM (inactive) | > 10 µM (inactive) | > 100 µM (inactive) | > 100 µM (inactive)
C=C1C(=O)OC2/C=C(/C)C(OC(C)=O)CC(O)/C(C)=C\C(OC(=O)/C(C)=C\C)C12 (stereo not given) | 46.6 µM (inactive) | 28.6 µM (inactive) | > 100 µM (inactive) | > 100 µM (inactive) | 26.7 µM (inactive) | 50.6 µM (inactive) | 25.8 µM (inactive) | 34.4 µM (inactive) | > 100 µM (inactive) | 18.2 µM (inactive) | > 100 µM (inactive) | > 100 µM (inactive) | 43.6 µM (inactive) | > 100 µM (inactive) | 34 µM (inactive) | 58.9 µM (inactive) | 53.8 µM (inactive) | 35.2 µM (inactive) | 38.7 µM (inactive) | > 100 µM (inactive)
CNCCCNC1(c2cc3ccccc3s2)CCCCC1 | 12.5 µM (inactive) | 1.66 µM (inactive) | 5.61 µM (inactive) | 2.36 µM (inactive) | 1.52 µM (inactive) | 5.52 µM (inactive) | 12.3 µM (inactive) | 1.79 µM (inactive) | 19.5 µM (inactive) | 3.56 µM (inactive) | 4.59 µM (inactive) | 13.5 µM (inactive) | 2.39 µM (inactive) | 1.76 µM (inactive) | 4.12 µM (inactive) | 14.9 µM (inactive) | 11.9 µM (inactive) | 1.98 µM (inactive) | 2.04 µM (inactive) | 14.3 µM (inactive)
CC(C)(C)CC(C)(C)NC(=S)NO | > 100 µM (inactive) | > 100 µM (inactive) | > 100 µM (inactive) | > 100 µM (inactive) | > 100 µM (inactive) | > 100 µM (inactive) | > 100 µM (inactive) | > 100 µM (inactive) | > 100 µM (inactive) | > 100 µM (inactive) | > 100 µM (inactive) | > 100 µM (inactive) | 63.7 µM (inactive) | > 100 µM (inactive) | > 100 µM (inactive) | > 100 µM (inactive) | > 100 µM (inactive) | > 100 µM (inactive) | > 100 µM (inactive) | > 100 µM (inactive)
OCC1C2CCC3(OCCO3)C12 (stereo not given) | > 100 µM (inactive) | > 100 µM (inactive) | > 100 µM (inactive) | > 100 µM (inactive) | > 100 µM (inactive) | > 100 µM (inactive) | > 100 µM (inactive) | > 100 µM (inactive) | > 100 µM (inactive) | > 100 µM (inactive) | > 100 µM (inactive) | > 100 µM (inactive) | > 100 µM (inactive) | > 100 µM (inactive) | > 100 µM (inactive) | > 100 µM (inactive) | > 100 µM (inactive) | > 100 µM (inactive) | > 100 µM (inactive) | > 100 µM (inactive)
c1nc(N2CC2)c2cnn(C3CCCCO3)c2n1 (stereo not given) | > 100 µM (inactive) | > 100 µM (inactive) | > 100 µM (inactive) | > 100 µM (inactive) | > 100 µM (inactive) | > 100 µM (inactive) | > 100 µM (inactive) | > 100 µM (inactive) | > 100 µM (inactive) | > 100 µM (inactive) | > 100 µM (inactive) | > 100 µM (inactive) | > 100 µM (inactive) | > 100 µM (inactive) | > 100 µM (inactive) | > 100 µM (inactive) | > 100 µM (inactive) | 36.6 µM (inactive) | > 100 µM (inactive) | > 100 µM (inactive)
CCN(CC)CCNC(=O)c1ccc(C)c(OCc2ccccc2)c1[N+](=O)[O-] | 43.9 µM (inactive) | 31.2 µM (inactive) | 39.9 µM (inactive) | 33.7 µM (inactive) | 27.7 µM (inactive) | 74.3 µM (inactive) | 18.3 µM (inactive) | 16 µM (inactive) | 44.8 µM (inactive) | 23 µM (inactive) | 21.2 µM (inactive) | 56.8 µM (inactive) | 24.9 µM (inactive) | 19.1 µM (inactive) | 22.3 µM (inactive) | 33.4 µM (inactive) | > 90.2 µM (inactive) | 19.2 µM (inactive) | 25.8 µM (inactive) | 35.9 µM (inactive)
COc1cc2c(/C=C3/C(=O)N(c4ccccc4)c4ccccc43)c(Cl)[nH]c2cc1C | 1.99 µM (inactive) | 1.71 µM (inactive) | 2.14 µM (inactive) | 2.77 µM (inactive) | 3.03 µM (inactive) | 2.31 µM (inactive) | 2.84 µM (inactive) | 1.9 µM (inactive) | 24.3 µM (inactive) | 2.95 µM (inactive) | 2.72 µM (inactive) | 2.59 µM (inactive) | 4.44 µM (inactive) | 3.82 µM (inactive) | 3.01 µM (inactive) | 2.11 µM (inactive) | 2.89 µM (inactive) | 2.84 µM (inactive) | 1.34 µM (inactive) | 3.45 µM (inactive)

Reference: ChEMBL document CHEMBL1201862, “PubChem BioAssay data set” (2004)
